According to US20020156265A1, “DNA encoding a GABABR2 polypeptide and uses thereof” (priority 1998, published 2002):
“Also recorded” adds a separate entry of the source. Where two headings read alike, the source gives them in different places.

Key:
GABABR1b/GABABR2 [1] = biological target: T1, GABABR1b/GABABR2 (Rattus norvegicus, UniProt Q9Z0U4); experiment: GIRK currents in HEK-293 cells transiently transfected with GABABR1b/GABABR2 + GIRKs (whole-cell patch clamp); assay type: cell-based; set-up: ligated to a PCR fragment containing the missing base pairs to obtain the full length clone; expressed in transfected cells; conditions: HEK-293 doubly transfected cells; CGP55845 at 1 μM, Ba++ 100 μM
T1 sequence (Q9Z0U4 1-844 isoform Q9Z0U4-3, one chain of several): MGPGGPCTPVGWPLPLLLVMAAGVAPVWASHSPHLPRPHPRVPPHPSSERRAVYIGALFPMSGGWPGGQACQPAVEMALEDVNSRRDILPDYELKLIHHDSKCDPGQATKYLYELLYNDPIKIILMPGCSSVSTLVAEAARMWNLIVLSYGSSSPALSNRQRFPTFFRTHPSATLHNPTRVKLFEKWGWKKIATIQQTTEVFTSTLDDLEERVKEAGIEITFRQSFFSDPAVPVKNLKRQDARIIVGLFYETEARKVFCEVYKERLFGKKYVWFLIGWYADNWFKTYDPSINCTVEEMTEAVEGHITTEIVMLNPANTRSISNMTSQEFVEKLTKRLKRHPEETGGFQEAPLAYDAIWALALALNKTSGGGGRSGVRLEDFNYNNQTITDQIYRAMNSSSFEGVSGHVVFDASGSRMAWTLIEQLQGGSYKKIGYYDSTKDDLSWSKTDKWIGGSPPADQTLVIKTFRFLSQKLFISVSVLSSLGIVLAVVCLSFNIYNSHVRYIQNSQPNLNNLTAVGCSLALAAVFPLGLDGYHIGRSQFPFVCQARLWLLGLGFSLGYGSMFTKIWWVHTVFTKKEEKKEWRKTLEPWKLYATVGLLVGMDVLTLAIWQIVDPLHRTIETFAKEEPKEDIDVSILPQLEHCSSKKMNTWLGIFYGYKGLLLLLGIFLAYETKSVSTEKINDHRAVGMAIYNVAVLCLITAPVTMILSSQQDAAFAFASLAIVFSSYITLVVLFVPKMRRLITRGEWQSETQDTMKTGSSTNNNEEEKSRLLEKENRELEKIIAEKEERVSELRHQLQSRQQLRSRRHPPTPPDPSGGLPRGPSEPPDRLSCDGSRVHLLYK
Description: The ability of the rat GABABR1 and GABABR2 genes to activate GIRK currents in mammalian cells was investigated by transient transfection of HEK-293 cells followed by voltage clamp analysis of currents. HEK-293 cells were maintained in Dulbecco's modified Eagle medium (DMEM) plus 10% (v/v) bovine calf serum, 2% L-glutamine, 50 U/ml penicillin, and 50 μg/ml streptomycin and were incubated at 37° C. in a humidified 5% CO2 atmosphere. Cells were harvested twice each week by treatment with 0.25% trypsin/1 mM EDTA in Hank's Salts and re-seeded at 20% of their original density either into 75 cm^2 flasks (for passaging) or into 35 mm tissue culture dishes (for transfection and electrophysiology experiments).
HEK-293 cells, 40%-80% confluent, were co-transfected with various combinations of 0.6 ug each of the following plasmids: pGreen Lantern-1 (Gibco/BRL, Gaithersburg, Md.), human GIRK1 (JS1800), human GIRK4 (JS1741), rat GABABR1b (BO58), and rat GABABR2 (BO55). Cells were transiently transfected using the Superfect Transfection Reagent from Qiagen (Valencia, Calif.) according to the manufacturer's instructions. Briefly, 3 μg total plasmid DNA were incubated with 22.5 μl Superfect Reagent in 100 μl serum-free DMEM for 5-10 minutes at room temperature. After addition of 600 μl complete DMEM, the DNA/Superfect mixture was transferred to cells growing in 35 mm dishes coated with poly-D-lysine and incubated for 2-4 hours at 37° C. in a 5% CO2 incubator. Subsequently, the dishes were washed once with phosphate-buffered saline and 2 ml complete DMEM was added. Cells were incubated for 24-72 hours at 37° C. before performing electrophysiological measurements.
The whole-cell configuration of the patch-clamp technique was used with glass pipettes having resistances of 2-4 MΩ when filled with the pipette solution. […] GIRK currents were recorded in elevated K^+ solution containing 25 mM K^+ and a correspondingly lower concentration of Na^+. Voltage clamp recordings were made with an EPC-9 amplifier using Pulse+PulseFit software (HEKA Elektronik). Series resistances were kept below 10 Mohm and no attempt was made to provide series resistance compensation. Currents were low-pass filtered at 1 kHz and digitized at a rate of 5 kHz. Unless otherwise noted, experiments were performed at room temperature on cells voltage clamped at a holding potential of −70 mV. […] The time to complete solution exchange was about 100 ms. The bath was constantly perfused at a low rate with control solution.

[2] = rhesus monkeys; cited from earlier work
[3] = aged rats; cited from earlier work
GABABR1/R2 = GABABR1/R2 (Rattus norvegicus, UniProt Q9Z0U4); experiment: Radioligand binding, membranes from cells co-transfected with GABABR1/R2
Chain of GABABR1/R2 (Q9Z0U4 1-844 isoform Q9Z0U4-3, one chain of several): as above
Description: (§1) Transfected cells from culture flasks were scraped into 5 mL of Tris-HCl, 5 mM EDTA, pH 7.5, and lysed by sonication. The cell lysates were centrifuged at 1000 rpm for 5 min. at 4° C., and the supernatant was centrifuged at 30,000×g for 20 min. at 4° C. The pellet was suspended in binding buffer (50 mM Tris-HCl, 2.5 mM CaCl2 at pH 7.5 supplemented with 0.1% BSA, 2 μg/mL aprotinin, 0.5 mg/mL leupeptin, and 10 μg/mL phosphoramidon). […] In equilibrium saturation binding assays membrane preparations were incubated in the presence of increasing concentrations of labeled compound. […] Binding reaction mixtures were incubated for 1 hr at 30° C., and the reaction was stopped by filtration through GF/B filters treated with 0.5% polyethyleneimine, using a cell harvester. […] Data were analyzed by a computerized non-linear regression program. Non-specific binding was defined as the amount of radioactivity remaining after incubation of membrane protein in the presence of excess unlabeled compound. Protein concentration may be measured by the Bradford method using Bio-Rad Reagent, with bovine serum albumin as a standard.

GABABR1b/GABABR2 [4] = biological target: T1, GABABR1b/GABABR2; experiment: GIRK currents in Xenopus oocytes expressing GABABR1b/GABABR2 + GIRKs (voltage clamp); assay type: cell-based; set-up: ligated to a PCR fragment containing the missing base pairs to obtain the full length clone; linearized DNA plasmids containing the complete coding region of the gene; expressed in transfected cells; host or cells: Xenopus laevis oocytes, mRNA injection; conditions: for pKB: GABABR1 + GABABR2, oocytes, antagonist, measured using GABA as agonist, n = 4-6 oocytes; for Shift of the GABA concentration-response curve: CGP55845 at 50 nM, CGP54626 at 5 μM, FIG. 15B
Description: Human heart cDNA was used as template together with the primers
Dual electrode voltage clamp (“GeneClamp”, Axon Instruments Inc., Foster City, Calif.) is performed using 3 M KCl-filled glass microelectrodes having resistances of 1-3 Mohms. […] Experiments are carried out at room temperature.
Fits were made with a Marquardt-Levenberg non-linear least-squares curve fitting algorithm.

GABABR1 = GABABR1 (Rattus norvegicus, UniProt Q9Z0U4); experiment: Radioligand binding, [3H]-CGP54626, membranes of COS-7 or HEK293 cells expressing GABABR1; conditions: for pKi: Displacement of [3H]-CGP54626 from COS-7 cells expressing GABABR1
Chain of GABABR1 (Q9Z0U4 1-844 isoform Q9Z0U4-3): as the sequence (Q9Z0U4 1-844 isoform Q9Z0U4-3, one chain of several) above
Description: as §1

rat GABABR1/rat GABABR2 = rat GABABR1/rat GABABR2 (Rattus norvegicus, UniProt Q9Z0U4); experiment: Microphysiometry (extracellular acidification) in CHO cells co-expressing rat GABABR1/rat GABABR2; conditions: 100 nM CGP55845, pretreatment with PTX
Chain of rat GABABR1/rat GABABR2 (Q9Z0U4 1-844 isoform Q9Z0U4-3, one chain of several): as above
Description: GABABR1, GABABR2 or the combination, were transiently expressed in CHO-K1 cells by liposome mediated transfection according to the manufacturer's recommendations (“LipofectAMINE”, GibcoBRL, Bethesda, Md.), and maintained in Ham's F-12 medium with 10% bovine serum. […] The recording paradigm consisted of a 100 ml/min flow rate and a 30 s flow interruption during which the rate measurement was taken. Challenges involved an 80 s drug exposure just prior to the first post-challenge rate measurement being taken, followed by two additional pump cycles. Acidification rates reported are expressed as a percentage increase of the peak response over the baseline rate observed just prior to challenge.

GABABR2 = biological target: T2, GABABR2 (Rattus norvegicus, UniProt O88871); experiment: Radioligand binding, membranes of HEK293 or COS-7 cells expressing GABABR2
T2 sequence (O88871 41-940): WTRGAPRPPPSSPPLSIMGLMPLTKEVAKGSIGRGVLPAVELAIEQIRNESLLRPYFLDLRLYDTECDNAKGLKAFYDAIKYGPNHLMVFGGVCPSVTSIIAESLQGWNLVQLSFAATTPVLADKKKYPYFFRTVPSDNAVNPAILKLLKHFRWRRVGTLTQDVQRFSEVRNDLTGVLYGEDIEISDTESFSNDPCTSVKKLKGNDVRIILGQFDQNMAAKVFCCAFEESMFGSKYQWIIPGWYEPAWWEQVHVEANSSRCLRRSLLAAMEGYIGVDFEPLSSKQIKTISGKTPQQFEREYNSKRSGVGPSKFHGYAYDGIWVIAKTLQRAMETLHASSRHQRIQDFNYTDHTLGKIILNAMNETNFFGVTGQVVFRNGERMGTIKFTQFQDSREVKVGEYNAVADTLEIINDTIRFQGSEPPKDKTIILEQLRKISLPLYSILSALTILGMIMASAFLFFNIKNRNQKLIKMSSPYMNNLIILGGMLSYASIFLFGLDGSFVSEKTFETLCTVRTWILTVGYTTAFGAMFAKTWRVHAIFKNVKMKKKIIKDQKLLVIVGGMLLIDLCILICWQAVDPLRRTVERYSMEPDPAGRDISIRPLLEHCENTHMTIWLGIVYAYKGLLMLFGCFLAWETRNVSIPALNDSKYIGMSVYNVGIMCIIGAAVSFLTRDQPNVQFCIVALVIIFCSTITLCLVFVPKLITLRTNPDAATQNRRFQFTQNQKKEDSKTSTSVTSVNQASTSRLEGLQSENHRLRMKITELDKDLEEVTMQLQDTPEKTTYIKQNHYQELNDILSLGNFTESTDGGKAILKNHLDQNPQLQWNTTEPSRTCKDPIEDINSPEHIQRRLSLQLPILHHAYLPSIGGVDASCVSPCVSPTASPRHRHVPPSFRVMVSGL
Description: as §1

[5] = rat, in vivo; cited from earlier work
GABA receptors = conditions: in vivo; cited from earlier work
rat GABABR2 (rat) [6] = biological target: rat GABABR2 (rat) (UniProt O88871); experiment: cell-based or functional assay
rat GABABR2 (rat) [7] = biological target: rat GABABR2 (rat) (UniProt O88871); experiment: cell-based or functional assay; remark: listed apart in the source

Molecule: [Ba+2] [Ba^++]
- Block of GABA-elicited currents (GABABR1b/GABABR2 [1]): completely blocked

Molecule: CCCCP(=O)(O)CCCN [CGP36742]
- Performance in conditioned spatial color task [2]: improve
- Learning performance [3]: improve learning performance

Molecule: C[C@H](NC[C@H](O)CP(=O)(O)CC1CCCCC1)c1ccc(Cl)c(Cl)c1 [CGP54626]
- Binding profile compared with GABABR1 alone (GABABR1/R2): not different from those transfected with GABABR1 alone
- pKB (GABABR1b/GABABR2 [4]): 7.48
- Shift of the GABA concentration-response curve (GABABR1b/GABABR2 [4]; oocytes): Right-ward shifts
- pKi (GABABR1): 8.95

Molecule: C[C@H](NC[C@H](O)CP(=O)(O)Cc1ccccc1)c1ccc(Cl)c(Cl)c1 [CGP55845]
- Binding profile compared with GABABR1 alone (GABABR1/R2): not different from those transfected with GABABR1 alone
- Block of baclofen-stimulated acidification response (rat GABABR1/rat GABABR2): blocked
- Block of GABA-elicited currents (GABABR1b/GABABR2 [1]): completely blocked; also recorded: abolished
- pKB (GABABR1b/GABABR2 [4]): 8.60
- Block of currents stimulated by GABA (GABABR1b/GABABR2 [4]; oocytes, CGP55845 1 μM, reversible): completely blocked
- Shift of the GABA concentration-response curve (GABABR1b/GABABR2 [4]; oocytes): Right-ward shifts
- pKi (GABABR1): 8.7

Molecule: CC1(C)CO[C@@H](CC(=O)O)CN1 [SCH-50911]
- Binding profile compared with GABABR1 alone (GABABR1/R2): not different from those transfected with GABABR1 alone

Molecule: C[C@H](NC[C@H](O)CP(=O)(O)CC1CCCCC1)c1ccc(Cl)c(Cl)c1 [[^3H]-CGP54626]
- Labeling of membranes by radioligand (GABABR2): not those expressing GABABR2
- Labeling of membranes by radioligand (GABABR1; HEK293 or COS-7 cells expressing GABABR1): labeled

Molecule: NCC(CC(=O)O)c1ccc(Cl)cc1 (stereo not drawn) [baclofen]
- Reinforcing effects of cocaine [5]: attenuate the reinforcing effects of cocaine

Molecule: NCC(CP(=O)(O)O)c1ccc(Cl)cc1 (stereo not drawn) [phaclofen]
- Dopamine release in the ventral pallidum (GABA receptors): increased dopamine release

Molecule: pertussis toxin
- Block of baclofen-stimulated acidification response (rat GABABR1/rat GABABR2): blocked
- Effect on GABA-stimulated currents (GABABR1b/GABABR2 [4]; oocytes injected with pertussis toxin 2 ng/oocyte 6 h before voltage clamping): abolished

Molecule: rat GABABR1a (from UniProt Q9Z0U4 20-960) (receptor)
- K+ (GIRK) currents in response to 100 µM GABA, HEK-293 cells (rat GABABR2 (rat) [6]): 1050 pA

Molecule: rat GABABR1b (from UniProt Q9Z0U4 164-960) (receptor)
- Magnitude of GIRK currents stimulated by GABA, HEK-293, mean (pA) (rat GABABR2 (rat) [7]): 470 pA
- Magnitude of GIRK currents stimulated by GABA, oocytes, mean (nA) (rat GABABR2 (rat) [7]): 832 nA
- Magnitude of GIRK currents stimulated by GABA, HEK-293, mean (pA) (rat GABABR2 (rat) [6]): 658 pA
- Magnitude of GIRK currents stimulated by GABA, oocytes, mean (nA) (rat GABABR2 (rat) [6]): 1400 nA
- agonist-evoked extracellular acidification rate, microphysiometer, co-transfected CHO cells (rat GABABR2 (rat) [6]): 9 fold
